Values quoted from earlier work in patent publication US20090196935A1, “Pharmaceutical Capsules Comprising Extended Release Dipyridamole Pellets” (priority 2008, published 2009).

How the values were obtained:
[1] = in vivo
[2] = not given; remark: listed apart in the source

OCCN(CCO)c1nc(N2CCCCC2)c2nc(N(CCO)CCO)nc(N3CCCCC3)c2n1 [Dipyridamole, 2,6-bis-(diethanolamino)-4,8-dipiperidino-(5,4-d)-pyrimidine]
biological half-life [1]: less than one hour
solubility in acidic mediums (acidic mediums with a pH below 4): soluble
solubility in dilute acids (dilute acids): soluble
solubility in water (water): practically insoluble
solubility in water at a pH greater than 4 (water at a pH greater than 4): practically insoluble
solubility (weak base, medium not stated): poor solubility
pKa [2]: 6.1
